The subject of the assay is HCV pseudoparticles (genotype 1a HCV E1 and E2 envelope, H77C isolate). Kind of assay: microbe, parasite or virus in culture. Type of assay: cell-based. The conditions noted are these: Hepatitis C virus.
The mark [1] stands for this setting: Huh-7, 48 h, HCV pseudoparticles, Huh7 cells, luciferase 2 days after infection, average of duplicates.
Setting [2] is: Huh-7, 48 h, read-out: Activity (EC50 class), HCV pseudoparticles, Huh7 cells, luciferase 2 days after infection, average of duplicates.
Setting [3] is: Huh-7, read-out: Activity (EC50 class), HCV pseudoparticles (genotype 1a, H77C) in Huh7 cells, EC50 expressed as class A/B.
[4] abbreviates: Huh-7, 48 h, read-out: Activity (EC50 class), HCV pseudoparticle infection of Huh7 cells, luciferase 2 days after infection, EC50 expressed as class A/B.
Setting [5] is: Huh-7, 48 h, HCV pseudoparticles (genotype 1a, H77C) in Huh7 cells, average of duplicate, luciferase 2 days after infection.
The mark [6] stands for this setting: Huh-7, 48 h, HCV pseudoparticle infection of Huh7 cells, luciferase 2 days after infection, average of duplicates.

Like-named read-outs stand apart in the source and are kept apart here.

Results on 43 compounds are retold here after patent US8916702B2 (priority 2012, dated 2014).

Take `O=C(NCC[C@H](NC(=O)c1ccc(Nc2nc(NC3(c4ccc(Cl)cc4)CC3)nc(OCC(F)(F)F)n2)cc1)C(=O)O)C(=O)Nc1cccc(OC(F)(F)F)c1` [Compound 3619]: it took 0.084 nM to reach a half-maximal effect under setting [1] (EC50) and the EC50 – broadly, the concentration at which the effect is half-maximal – under setting [2] fell in the range of 0.01 to 10 nM.
As for `COC(=O)[C@@H](CCNC(=O)C(=O)Nc1cccc(-c2cnco2)c1)NC(=O)c1ccc(Nc2nc(NC3(c4ccc(Cl)cc4)CC3)nc(OCC(F)(F)F)n2)cc1` [Compound 3579], under setting [3], the EC50 fell in the range of 0.01 to 10 nM.
For `COC(=O)[C@H](CNC(=O)C(=O)NCC1CCCCCC1)NC(=O)c1ccc(Nc2nc(NC3(c4ccc(Cl)cc4)CC3)nc(OCC(F)(F)F)n2)cc1` [Compound 1451], under setting [4], the EC50 lay within 0.01 to 10 nM.
With `Cc1ccc(NC(=O)C(=O)N(C)CCCN(C)C(=O)c2ccc(Nc3nc(NC4(c5ccc(Cl)cc5)CC4)nc(OCC(F)(F)F)n3)cc2)cc1` [Compound 3406], the concentration for a half-maximal effect (EC50) runs as follows: under setting [5], 1.91 nM; under setting [3], 0.01 to 10 nM.
Regarding `CC(C)(CNC(=O)C(=O)Nc1ccc(/C=C/c2ccccc2)cc1)CNC(=O)c1ccc(Nc2nc(NC3(c4ccc(Cl)cc4)CC3)nc(OCC(F)(F)F)n2)cc1F` [Compound 3564], the half-maximal effective concentration (EC50) under setting [3] fell in the range of 0.01 to 10 nM.
Consider `Cc1cccc(NC(=O)C(=O)NC[C@H](NC(=O)c2ccc(Nc3nc(NC4(c5ccc(Cl)cc5)CC4)nc(OCC(F)(F)F)n3)cc2)C(=O)Cl)c1` [Compound 3743], for which, under setting [2], the EC50 is 0.01 to 10 nM.
In the case of `CC(C)(CNC(=O)C(=O)Nc1ccccc1)CNC(=O)c1ccc(Nc2nc(NC3(c4ccc(Cl)cc4)CC3)nc(OCC(F)(F)F)n2)cc1` [Compound 1537], under setting [4], the EC50 was in the range of 0.01 to 10 nM.
Consider `O=C(NCC[C@H](NC(=O)c1ccc(Nc2nc(NC3(c4ccc(Cl)cc4)CC3)nc(OCC(F)(F)F)n2)cc1)C(=O)O)C(=O)Nc1cccc(-c2cccnc2)c1` [Compound 3652], for which the concentration for a half-maximal effect (EC50) is 0.45 nM under setting [1] and 0.01 to 10 nM under setting [2].
Consider `CCc1ccc(NC(=O)C(=O)NC[C@H](NC(=O)c2ccc(Nc3nc(NC4(c5ccc(Cl)cc5)CC4)nc(OCC(F)(F)F)n3)cc2)C(=O)OC)cc1` [Compound 3213], for which the EC50 under setting [3] was in the range of 0.01 to 10 nM.
Consider `COC(=O)[C@H](CNC(=O)C(=O)Nc1cnn(C)c1)NC(=O)c1ccc(Nc2nc(NC3(c4ccc(Cl)cc4)CC3)nc(OCC(F)(F)F)n2)cc1` [Compound 1248], for which the EC50 under setting [4] was in the range of 0.01 to 10 nM.
In the case of `COC(=O)[C@H](CCNC(=O)C(=O)Nc1cccc(OCc2ccccc2)c1)NC(=O)c1ccc(Nc2nc(NC3(c4ccc(Cl)cc4)CC3)nc(OCC(F)(F)F)n2)cc1` [Compound 3612], the half-maximal effective concentration (EC50) under setting [2] lay in the range of 0.01 to 10 nM.
For the compound `COc1ccccc1NC(=O)C(=O)NCC(C)(C)CNC(=O)c1ccc(Nc2nc(NC3(c4ccc(Cl)cc4)CC3)nc(OCC(F)(F)F)n2)cc1` [Compound 3006], the concentration giving a half-maximal response (EC50) under setting [3] was 0.01 to 10 nM.
For the compound `O=C(NCC[C@H](NC(=O)c1ccc(Nc2nc(NC3(c4ccc(Cl)cc4)CC3)nc(OCC(F)(F)F)n2)cc1)C(=O)O)C(=O)NCC1CC1` [Compound 1206], the EC50 under setting [4] lay in the range of 0.01 to 10 nM.
On the same count and under the same terms, next, `COC(=O)[C@H](CNC(=O)C(=O)NCCc1ccccc1F)NC(=O)c1ccc(Nc2nc(NC3(c4ccc(Cl)cc4)CC3)nc(OCC(F)(F)F)n2)cc1` [Compound 1290]: 0.01 to 10 nM.
With `COC(=O)[C@H](CCNC(=O)C(=O)Nc1ccc(Cc2ccccc2)cc1)NC(=O)c1ccc(Nc2nc(NC3(c4ccc(Cl)cc4)CC3)nc(OCC(F)(F)F)n2)cc1` [Compound 3120], the concentration giving a half-maximal response (EC50) under setting [3] lay within 0.01 to 10 nM.
Still for that read-out and setting: next, `CC(C)(CNC(=O)C(=O)Nc1nc2ccccc2s1)CNC(=O)c1ccc(Nc2nc(NC3(c4ccc(Cl)cc4)CC3)nc(OCC(F)(F)F)n2)cc1F` [Compound 3568]: 0.01 to 10 nM.
The same measure, in the same setting: next, `CC(C)(CNC(=O)C(=O)Nc1ccc2c(c1)COC2=O)CNC(=O)c1ccc(Nc2nc(NC3(c4ccc(Cl)cc4)CC3)nc(OCC(F)(F)F)n2)cc1` [Compound 3359]: 0.01 to 10 nM.
On to `COC(=O)[C@H](CCNC(=O)C(=O)Nc1cccc(-c2noc(C)n2)c1)NC(=O)c1ccc(Nc2nc(NC3(c4ccc(Cl)cc4)CC3)nc(OCC(F)(F)F)n2)cc1` [Compound 3606], for which the half-maximal effective concentration (EC50) under setting [2] was in the range of 0.01 to 10 nM.
`COC(=O)[C@H](CNC(=O)C(=O)Nc1cccc(Oc2ccccn2)c1)NC(=O)c1ccc(Nc2nc(NC3(c4ccc(Cl)cc4)CC3)nc(OCC(F)(F)F)n2)cc1` [Compound 3726]: under setting [2], the EC50 lay in the range of 0.01 to 10 nM.
Turning to `COC(=O)[C@H](CCNC(=O)C(=O)Nc1ccn(C)n1)NC(=O)c1ccc(Nc2nc(NC3(c4ccc(Cl)cc4)CC3)nc(OCC(F)(F)F)n2)cc1` [Compound 1221], the half-maximal effective concentration (EC50) under setting [4] was in the range of 0.01 to 10 nM.
Regarding `COC(=O)[C@H](CCNC(=O)C(=O)NCCc1ccccn1)NC(=O)c1ccc(Nc2nc(NC3(c4ccc(Cl)cc4)CC3)nc(OCC(F)(F)F)n2)cc1` [Compound 1306], the EC50 under setting [4] lay within 0.01 to 10 nM.
For `COC(=O)[C@H](CNC(=O)C(=O)Nc1ccc(C(F)(F)F)cc1)NC(=O)c1ccc(Nc2nc(NC3(c4ccc(Cl)cc4)CC3)nc(OCC(F)(F)F)n2)cc1` [Compound 1255], the 50% effective concentration (EC50) under setting [6] came out at 1.1 nM and the concentration for a half-maximal effect (EC50) under setting [4] was 0.01 to 10 nM.
With `COc1cc(OC)nc(-c2ccc(NC(=O)C(=O)NCC(C)(C)CNC(=O)c3ccc(Nc4nc(NC5(c6ccc(Cl)cc6)CC5)nc(OCC(F)(F)F)n4)cc3)cc2)n1` [Compound 1596], the 50% effective concentration (EC50) under setting [4] was in the range of 0.01 to 10 nM.
With `N#Cc1cccc(NC(=O)C(=O)NC[C@H](NC(=O)c2ccc(Nc3nc(NC4(c5ccc(Cl)cc5)CC4)nc(OCC(F)(F)F)n3)cc2)C(=O)Cl)c1` [Compound 3740], the concentration giving a half-maximal response (EC50) under setting [2] was in the range of 0.01 to 10 nM.
For `COC(=O)/C=C/c1ccccc1NC(=O)C(=O)NCC(C)(C)CNC(=O)c1ccc(Nc2nc(NC3(c4ccc(Cl)cc4)CC3)nc(OCC(F)(F)F)n2)cc1` [Compound 3138], the EC50 was 0.46 nM under setting [5] and 0.01 to 10 nM under setting [3].
Regarding `O=C(NC[C@H](NC(=O)c1ccc(Nc2nc(NC3(c4ccc(Cl)cc4)CC3)nc(OCC(F)(F)F)n2)cc1)C(=O)O)C(=O)Nc1ccc(-c2ncco2)cc1` [Compound 3292], the concentration giving a half-maximal response (EC50) under setting [3] was 0.01 to 10 nM.
As to `CCc1ccnn1CC1(CNC(=O)C(=O)NCC[C@H](NC(=O)c2ccc(Nc3nc(NC4(c5ccc(Cl)cc5)CC4)nc(OCC(F)(F)F)n3)cc2)C(=O)O)CC1` [Compound 1430], the EC50 under setting [4] lay in the range of 0.01 to 10 nM.
In the case of `Cc1cc2nc(NC(=O)C(=O)NCC(C)(C)CNC(=O)c3ccc(Nc4nc(NC5(c6ccc(Cl)cc6)CC5)nc(OCC(F)(F)F)n4)cc3)sc2cc1C` [Compound 3820], the concentration giving a half-maximal response (EC50) under setting [2] fell in the range of 0.01 to 10 nM.
Regarding `CC(C)(CNC(=O)C(N)=O)CNC(=O)c1ccc(Nc2nc(NC3(c4ccc(Cl)cc4)CC3)nc(OCC(F)(F)F)n2)cc1O` [Compound 3389], the EC50 under setting [3] was 0.01 to 10 nM.
`Cc1cccc2sc(NC(=O)C(=O)NCC(C)(C)CNC(=O)c3ccc(Nc4nc(NC5(c6ccc(Cl)cc6)CC5)nc(OCC(F)(F)F)n4)cc3)nc12` [Compound 3805]: the EC50 under setting [2] is 0.01 to 10 nM.
Still for that read-out and setting: the result for `O=C(NCC[C@H](NC(=O)c1ccc(Nc2nc(NC3(c4ccc(Cl)cc4)CC3)nc(OCC(F)(F)F)n2)cc1)C(=O)O)C(=O)Nc1ccc(O)nc1` [Compound 3646] reads 0.01 to 10 nM.
For the compound `CC(CNC(=O)C(=O)Nc1ccccc1)CNC(=O)c1ccc(Nc2nc(NC3(c4ccc(Cl)cc4)CC3)nc(OCC(F)(F)F)n2)cc1` (stereo not shown) [Compound 3470], the half-maximal effective concentration (EC50) under setting [3] lay within 0.01 to 10 nM.
For `O=C(NC[C@H](NC(=O)c1ccc(Nc2nc(NC3(c4ccc(Cl)cc4)CC3)nc(OCC(F)(F)F)n2)cc1)C(=O)O)C(=O)Nc1cccc(-c2ccc(Cl)cc2)c1` [Compound 3775], under setting [2], the concentration giving a half-maximal response (EC50) was in the range of 0.01 to 10 nM.
`CC(C)(CNC(=O)C(=O)Nc1ccc(-c2cccc(C(=O)O)c2)cc1)CNC(=O)c1ccc(Nc2nc(NC3(c4ccc(Cl)cc4)CC3)nc(OCC(F)(F)F)n2)cc1` [Compound 1543]: the EC50 under setting [4] lay within 0.01 to 10 nM.
Consider `CC(C)(CNC(=O)C(=O)Nc1ccc2c(c1)Cc1ccccc1-2)CNC(=O)c1ccc(Nc2nc(NC3(c4ccc(Cl)cc4)CC3)nc(OCC(F)(F)F)n2)cc1` [Compound 1570], for which the EC50 runs as follows: under setting [6], 0.05 nM; under setting [4], 0.01 to 10 nM.
As to `COc1cccc(CNC(=O)C(=O)NCC[C@H](NC(=O)c2ccc(Nc3nc(NC4(c5ccc(Cl)cc5)CC4)nc(OCC(F)(F)F)n3)cc2)C(=O)O)c1` [Compound 1183], the concentration for a half-maximal effect (EC50) under setting [4] was in the range of 0.01 to 10 nM.
Consider `COC(=O)[C@H](CNC(=O)C(=O)N[C@H]1C[C@H]2C3C2[C@]31C)NC(=O)c1ccc(Nc2nc(NC3(c4ccc(Cl)cc4)CC3)nc(OCC(F)(F)F)n2)cc1` (stereo partly shown) [Compound 1054], for which the EC50 under setting [4] fell in the range of 0.01 to 10 nM.
As to `O=C(NC[C@H](NC(=O)c1ccc(Nc2nc(NC3(c4ccc(Cl)cc4)CC3)nc(OCC(F)(F)F)n2)cc1)C(=O)O)C(=O)Nc1cccc(-c2ccccc2)c1` [Compound 3751], the 50% effective concentration (EC50) by setting is: under setting [1], 0.14 nM; under setting [2], 0.01 to 10 nM.
Consider `CC1CCCCC1NC(=O)C(=O)NC[C@H](NC(=O)c1ccc(Nc2nc(NC3(c4ccc(Cl)cc4)CC3)nc(OCC(F)(F)F)n2)cc1)C(=O)O` (stereo partly shown) [Compound 1089], for which, under setting [4], the EC50 was in the range of 0.01 to 10 nM.
With `CCc1cccc(NC(=O)C(=O)NC[C@H](NC(=O)c2ccc(Nc3nc(NC4(c5ccc(Cl)cc5)CC4)nc(OCC(F)(F)F)n3)cc2)C(=O)Cl)c1` [Compound 3744], the EC50 runs as follows: under setting [1], 1.18 nM; under setting [2], 0.01 to 10 nM.
In the case of `COC(=O)/C(CCNC(=O)C(=O)Nc1cccc(S(=O)(=O)C(F)(F)F)c1)=N\C(=O)c1ccc(Nc2nc(NC3(c4ccc(Cl)cc4)CC3)nc(OCC(F)(F)F)n2)cc1` [Compound 3589], the concentration giving a half-maximal response (EC50) under setting [3] was in the range of 0.01 to 10 nM.
Take `O=C(NC[C@H](NC(=O)c1ccc(Nc2nc(NC3(c4ccc(Cl)cc4)CC3)nc(OCC(F)(F)F)n2)cc1)C(=O)O)C(=O)Nc1cccc(-c2ncc[nH]2)c1` [Compound 3765]: the EC50 under setting [1] is 0.68 nM and the half-maximal effective concentration (EC50) under setting [2] is 0.01 to 10 nM.
With `COC(=O)[C@H](CNC(=O)C(=O)Nc1ccc(OCC(F)(F)F)cc1)NC(=O)c1ccc(Nc2nc(NC3(c4ccc(Cl)cc4)CC3)nc(OCC(F)(F)F)n2)cc1` [Compound 3096], the EC50 under setting [3] lay in the range of 0.01 to 10 nM.
